Assays:
[1] = tested on: ex vivo osteoarthritic cartilage explants; assay: Ex vivo human osteoarthritic cartilage defect repair with fibrin-ECM constructs or pellets; type: cell-based; conditions: implanted as hydrogel or pellets, 3 weeks, serum-free chondrogenic medium with TGFβ3 10 ng/ml
Description: (§1) Monolayer cultured ES-MSC were suspended in a hydrogel wafer composed of collagen II (Innovative Research Inc. Novi, MI), hyaluronate (Supartz FX sodium hyaluronate, Seikagaku Corp. Tokyo, Japan), chondroitin sulfate (Sigma-Aldrich) and fibrin (Baxter Healthcare, Deerfield, IL) at a density of 20×10^6 cells per ml. The fibrinogen and thrombin components were prepared separately. To each fibrinogen component, 2 mg/ml sodium hyaluronate, 2 mg/ml chondroitin sulfate and 6 mg/ml collagen II was added (2× concentration of final). Cells were added to the thrombin component at a density of 40×10^6 cells per ml. Thrombin and fibrinogen components in individual syringes were attached to a Baxter DUO mixing syringe and extruded to form the coagulated constructs. The constructs were either directly implanted into ex vivo cartilage tissue or coagulated in 6 well tissue culture plates for 4 to 8 minutes before 4-6 ml of chondrogenic medium was added. To prevent shrinkage of the constructs during culture, the gels were held on AdminPatch microneedle arrays (AdminMed, Sunnyvale, CA) for the duration of their culture.
Osteochondral tissues were obtained from patients ranging between 60 to 70 years of age undergoing total knee arthroplasty within 4-6 hours of surgery (approved by Scripps Institutional Review Board) as previous described. Cartilage disks (6 mm in diameter and ~2-3 mm thick) were harvested from the osteochondral specimens using a sterile dermal punch. The cartilage tissue was cultured in medium consisting of DMEM (Mediatech Inc., Manassas, VA) supplemented with 10% calf serum (Omega Scientific Inc., Tarzana, CA) and 1% Penicillin-Streptomycin-Gentamycin (Life Technologies, Carlsbad, CA). Cartilage disks were maintained in 6-well plates (2-4 per well) in 8 ml medium for 72 hours before creation of the surgical defect. A flame-sterilized stainless-steel burr was used create defects approximately 2×2 mm wide and 0.5 to 1 mm deep. These defects were filled with pellets or hydrogel constructs trimmed to size using 2 mm dermal biopsy punches. […]

[2] = tested on: H9 ES-MSC; assay: Pellet culture chondrogenesis, histology and immunohistochemistry; type: cell-based, human; conditions: 3 weeks, Safranin-O, collagen type I and II
Description: Monolayer-expanded ES-MSC (passage 2-5) were detached using Accutase® and 0.5×10^6 cells in 0.5 ml of chondrogenic medium were centrifuged at 900 rpm (~770 G) for 5 minutes to form high-density pellets. At least 5-6 pellets, for each ES-MSC condition, were cultured in serum-free chondrogenic medium consisting of Dulbecco's Modified Eagle Medium (Mediatech Inc., Manassas, VA), 1×ITS supplement (Sigma-Aldrich, St. Louis, MO), 100 nM Dexamethasone (Sigma), 1.25 mg/ml human serum albumin (Bayer, Leverkusen, Germany), 100 μM ascorbic acid 2-phosphate (Sigma), 1% penicillin/streptomycin/gentamycin (PSG, Gibco, Carlsbad, CA), and 10 ng/ml TGFβ3 (PeproTech, Rocky Hill, NJ). Pellets for ex vivo implantation were cultured for 3 days before implantation; pellets for histologic or gene expression analysis were maintained in culture for 3 weeks with media changes every 3 to 4 days.
Cell pellets and explants were fixed in Z-Fix (3.7% formaldehyde, Anatech Ltd., Battle Creek, MI), processed for embedding in paraffin, and cut into 4 μm-thick sections. Sections were stained with Safranin-O and Fast Green to visualize glycosaminoglycan distribution in the tissues. Alzarin Red S staining was used to detect the presence of mineralized matrix.
For assessment of collagen types I and II, sections were pretreated with pepsin (Digest-All 3, Thermo Fisher Scientific) for 9 minutes at 37° C. in a humid chamber before incubation at 4° C. for 12 to 16 hours with the following primary antibodies: rabbit anti-human collagen type I antibody (Ab 34710, Abcam, Cambridge, MA) 1 μg/ml; or mouse anti-human collagen type II (II-II6B3, Hybridoma Bank, University of Iowa) 2 μg/ml. For color development, the ImmPRESS secondary DAB (brown) or AP (red) kits (Vector Laboratories, Burlingame, CA) was used. Isotype controls were used to monitor non-specific staining.

[3] = tested on: HAD ES-MSC; assay: Fibrin-ECM hydrogel construct culture on needle array; type: cell-based, human; conditions: 20×10^6 cells per ml, 3 weeks of culture, N=8
Description: as §1
Cell pellets and explants were fixed in Z-Fix (3.7% formaldehyde, Anatech Ltd., Battle Creek, MI), processed for embedding in paraffin, and cut into 4 μm-thick sections. Sections were stained with Safranin-O and Fast Green to visualize glycosaminoglycan distribution in the tissues. […]

[4] = tested on: HUES9 ESC; conditions: 10 μM SB431542, fibronectin, monolayer with 10% FBS; cited from earlier work

SMILES	cartilaginous neo-tissue formation in ex vivo osteoarthritic explants [1]	cartilage-like tissue formation in high density pellets [2]	cartilaginous tissue in fibrin-ECM construct (Safranin O fast green) [3]	enrichment for MSC markers CD44, CD73, CD146, and CD166 [4]
Cc1cccc(-c2[nH]c(C(C)(C)C)nc2-c2ccc3nccnc3c2)n1 [SB525334]	formed equally well	–	–	–
NC(=O)c1ccc(-c2nc(-c3ccc4c(c3)OCO4)c(-c3ccccn3)[nH]2)cc1 [SB431542]	formed equally well	consistently produced cartilage like-tissue	production of cartilaginous tissue	highly enriched
